What was measured:
[1] = Toxicokinetics in 28-day repeat-dose toxicity study; type: in vivo, dogs; settings: for half-life: oral
Experimental: In a 28-day repeat-dose toxicity study in dogs dosed orally daily with Compound 1 at 2, 6 and 18 mg/kg, high variability in Compound 1 exposure was generally observed for all dose levels on Days 1 and 28. Across the dose range evaluated, the mean % CV for Cmax and AUC0-24 was 46.2-93.2% and 45.5-91%, respectively, on Day 1 and 39.3-53.9% and 36.2-51.1%, respectively, on Day 28.

MET [2] = target: T1, MET (Homo sapiens, UniProt P08581); test: RTK autophosphorylation ELISA, PC-3 cells stimulated with HGF; type: cell-based; design: cell lines (PC-3, HUVEC, and A-172) stimulated with ligands to their respective receptors to induce autophosphorylation (MET, VEGFR2, and AXL); endogenous in cells; host or cells: PC-3; settings: MET (PC-3), ligand HGF; read-out: Cellular IC50
Experimental: The activity of Compound 1 was evaluated in cell-based assays that assessed the mechanistic effects of the compound in tumor and normal cells. Consistent with the biochemical data, Compound 1 is a potent inhibitor of cellular RTKs as assessed by analysis of receptor autophosphorylation as measured by enzyme-linked immunosorbent assay. Assays were performed using cell lines (PC-3, HUVEC, and A-172) stimulated with ligands to their respective receptors to induce autophosphorylation (MET, VEGFR2, and AXL) or a cell line (293A) transfected with an expression vector encoding the receptor of interest (MER). Inhibition of endogenous phosphorylated MET by Compound 1 in Hs 746T gastric carcinoma cells was also investigated due to the presence of the skip-splice mutation of exon 14 in the MET gene. This MET exon 14 alteration leads to increased MET stability and oncogenic activation, including constitutive MET phosphorylation. Also this mutation is known to occur in 3% of lung adenocarcinoma patients and to be sensitive to MET-targeted therapies (Frampton et al 2015).

mammalian cell = test: In vitro mammalian cell genotoxicity bioassay; type: cell-based
Experimental: (§1) The nonclinical toxicity of Compound 1 was characterized in dose range-finding 7-day and definitive 28-day repeat-dose studies in rats and dogs, and in in vitro bacterial and mammalian genotoxicity bioassays. Compound 1 was also evaluated in definitive neurobehavioral, respiratory and cardiovascular safety pharmacology studies.
Compound 1 was negative in in vitro bacterial and mammalian cell genotoxicity bioassays.

CYP2D6 = CYP2D6 (Homo sapiens, UniProt P10635); test: CYP/UGT substrate specificity (recombinant Supersomes, chemical inhibitors in human liver microsomes); type: in vitro ADME; design: purchased; host or cells: recombinant Supersomes; human liver microsomes
Experimental: (§2) Plasma PK of Compound 1 was characterized in rats and beagle dogs. Toxicokinetic (TK) evaluations of oral Compound 1 were evaluated in repeat-dose studies in rats and dogs. Plasma protein binding was determined in mouse, rat, dog, monkey, and human plasma in vitro. Biotransformation and metabolite profiling of Compound 1 were investigated in vitro using mouse, rat, dog, monkey, and human liver microsomal fractions and hepatocytes and in vivo in rats and dogs. P-glycoprotein (P-gp) and breast cancer resistance protein (BCRP) transporter interaction studies, in vitro experiments evaluating cytochrome P450 (CYP) induction and inhibition by Compound 1, and CYP and glucuronosyltransferase (UGT) substrate specificity studies of Compound 1 were also performed.

NCI-H441 = test: Tumor growth inhibition in xenograft model; type: in vivo, athymic nude mice
Experimental: (§3) Three human tumor cell lines, NCI-H441, MDA-MB-231, and SNU-5, were selected for use in tumor xenograft studies using athymic nude, NSG and CB.17 SCID mice, respectively. Pharmacodynamic modulation of MET phosphorylation was also measured in the NCI-H441 and SNU-5 xenografts. Tumor-bearing mice were orally dosed once-daily for 14 days (qd×14), and the tumors were resected and processed for MET phosphorylation analysis by Western blot. […]

CYP2C8 = test: Cytochrome P450 induction (mRNA levels) in fresh primary human hepatocytes; type: in vitro ADME
[3] = Liver microsomal stability assay; type: in vitro ADME, human; settings: liver microsomes
Experimental: (§4) In the liver microsomal stability assay, CLint was 0.601 mL/min/g liver in mouse, 0.563 mL/min/g liver in rat, 0.315 mL/min/g liver in dog, 0.734 mL/min/g liver in monkey, and 0.639 mL/min/g liver in human. In the hepatocyte stability assay, Compound 1 CLint was 0.373 mL/min/g liver in mouse, 0.285 mL/min/g liver in rat, 1.08 mL/min/g liver in dog, 0.533 mL/min/g liver in monkey, and 0.317 mL/min/g liver in human.

[4] = In vitro plasma protein binding; type: in vitro ADME, monkey
Experimental: as §2
Compound 1 (10 μM) was 97.2 and 97.5% protein bound in monkey and human plasma, respectively.

MC38 tumor = test: Tumor microvessels by CD31 staining in MC38 tumor-bearing animals; type: in vivo, murine
Experimental: MC38 tumor-bearing animals were treated with a range of Compound 1 doses (PO, qd; 3 mg/kg, 10 mg/kg, 30 mg/kg Compound 1) for 5 days. Tumors were analyzed for the presence of tumor microvessels by CD31 staining. FIG. 1A and FIG. 1B compare the tumor microvessels after administration of different doses of Compared 1 with vehicle.

[5] = Repeat-dose toxicity studies (7-day range-finding, definitive 28-day, 14-day recovery); type: in vivo, dogs
Experimental: as §1

[6] = Liver microsomal stability assay; type: in vitro ADME, mouse; settings: liver microsomes
Experimental: as §4

MET [7] = target: T1, MET; test: In vivo target modulation: MET phosphorylation by Western blot in NCI-H441 xenografts; design: endogenous in cells; host or cells: NCI-H441 human tumour xenografts in athymic nude mice; species or system athymic nude mice; settings: for Compound 1 Plasma Exposure: qd × 14, 4 hours after last dose on Day 14
Experimental: as §3

[8] = NCI-H441, mouse, po, read-out: p-MET Inhibition %

T1 sequence (P08581 25-1390): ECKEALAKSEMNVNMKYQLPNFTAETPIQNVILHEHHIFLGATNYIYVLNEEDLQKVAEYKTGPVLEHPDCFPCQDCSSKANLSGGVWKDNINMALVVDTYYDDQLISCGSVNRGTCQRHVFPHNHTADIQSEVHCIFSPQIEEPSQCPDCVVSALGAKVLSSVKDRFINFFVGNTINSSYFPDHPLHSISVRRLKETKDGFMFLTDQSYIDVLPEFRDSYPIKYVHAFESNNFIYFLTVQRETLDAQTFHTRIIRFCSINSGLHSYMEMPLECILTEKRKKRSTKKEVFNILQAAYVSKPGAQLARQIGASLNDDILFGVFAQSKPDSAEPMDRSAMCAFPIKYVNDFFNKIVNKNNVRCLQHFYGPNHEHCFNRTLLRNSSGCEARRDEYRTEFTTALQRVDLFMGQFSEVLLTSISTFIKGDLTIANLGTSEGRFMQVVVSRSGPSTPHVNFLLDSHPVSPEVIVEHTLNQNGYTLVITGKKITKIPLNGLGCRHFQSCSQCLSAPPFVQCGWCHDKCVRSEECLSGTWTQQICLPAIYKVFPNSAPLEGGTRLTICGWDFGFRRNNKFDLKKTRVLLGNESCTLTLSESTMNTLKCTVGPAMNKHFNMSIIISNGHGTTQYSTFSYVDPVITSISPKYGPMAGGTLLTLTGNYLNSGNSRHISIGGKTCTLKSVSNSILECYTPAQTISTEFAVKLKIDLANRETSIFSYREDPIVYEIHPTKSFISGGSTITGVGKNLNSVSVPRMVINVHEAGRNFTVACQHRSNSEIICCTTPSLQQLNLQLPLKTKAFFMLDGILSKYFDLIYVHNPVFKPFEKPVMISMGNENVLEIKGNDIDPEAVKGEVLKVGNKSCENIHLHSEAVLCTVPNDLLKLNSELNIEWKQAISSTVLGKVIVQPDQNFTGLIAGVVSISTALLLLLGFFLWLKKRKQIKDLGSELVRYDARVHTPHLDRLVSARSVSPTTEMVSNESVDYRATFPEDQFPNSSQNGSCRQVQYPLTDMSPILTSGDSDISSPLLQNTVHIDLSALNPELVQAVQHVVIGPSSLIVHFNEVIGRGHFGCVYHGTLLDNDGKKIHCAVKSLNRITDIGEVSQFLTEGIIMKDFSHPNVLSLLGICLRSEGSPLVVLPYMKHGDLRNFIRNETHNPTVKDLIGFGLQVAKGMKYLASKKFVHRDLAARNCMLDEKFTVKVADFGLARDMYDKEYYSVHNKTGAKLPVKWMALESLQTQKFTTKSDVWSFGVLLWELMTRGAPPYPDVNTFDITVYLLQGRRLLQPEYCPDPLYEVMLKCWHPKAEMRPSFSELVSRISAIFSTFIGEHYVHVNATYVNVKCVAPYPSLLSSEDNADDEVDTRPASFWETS
Sequence of CYP2D6 (P10635 whole entry): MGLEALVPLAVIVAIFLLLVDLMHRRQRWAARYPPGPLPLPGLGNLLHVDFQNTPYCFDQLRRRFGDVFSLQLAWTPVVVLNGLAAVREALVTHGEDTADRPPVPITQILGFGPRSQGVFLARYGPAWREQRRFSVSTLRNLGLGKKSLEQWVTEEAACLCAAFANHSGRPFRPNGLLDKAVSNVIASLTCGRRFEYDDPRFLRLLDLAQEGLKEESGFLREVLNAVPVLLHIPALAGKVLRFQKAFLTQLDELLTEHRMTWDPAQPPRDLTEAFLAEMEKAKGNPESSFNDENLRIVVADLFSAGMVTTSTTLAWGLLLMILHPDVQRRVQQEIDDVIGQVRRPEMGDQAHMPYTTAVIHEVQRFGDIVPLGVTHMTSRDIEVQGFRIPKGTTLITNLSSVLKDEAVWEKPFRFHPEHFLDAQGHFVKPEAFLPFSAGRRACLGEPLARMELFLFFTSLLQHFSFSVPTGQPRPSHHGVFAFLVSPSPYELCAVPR

## CNC(=O)c1cc2c(Oc3ccc(NC(=O)C4(C(=O)Nc5ccc(F)cc5)CC4)cc3)ccnc2cc1OC [Compound 1, 1-N′-(4-Fluorophenvl)-1-N-[4-[7-methoxy-6-(methylcarbamovl)quinolin-4-yl]oxyphenyl]cyclopropane-1,1-dicarboxamide]
[1]; 18 mg/kg dose level
  mean accumulation ratio for AUC0-24: 0.874
  mean accumulation ratio for Cmax: 0.891
[1]; 2 and 6 mg/kg dose levels
  mean accumulation ratio for AUC0-24: 1.57-3.38
  mean accumulation ratio for Cmax: 1.67-4.75
[1]; 28-day study
  Sex differences in mean Cmax and AUC0-24 values: less than 2 fold
[1]; both sexes, dog, plasma, Day 1
  half-life: 4.57 to 6.29 h
[1]; both sexes, dog, plasma, Day 28
  half-life: 3.96 to 5.23 h
[1]; both sexes, dog, plasma, oral gavage 2, 6 and 18 mg/kg, Days 1 and 28, read-out: median Tmax
  Tmax: 2 h
MET [2]
  IC50: 15 nM
Mammalian cell
  genotoxicity: negative
CYP2D6
  role in the metabolism of Compound 1: only a minor role
NCI-H441; 3 mg/kg qd × 14 oral, p-value 0.0115
  TGI (%): 63.3%
NCI-H441; 10 mg/kg qd × 14 oral, p-value <0.0001
  TGI (%): regression
CYP2C8; human, fresh primary human hepatocytes, mRNA induction, read-out: half-maximal effective concentration (EC50)
  EC50: 2010 nM
CYP2C8; mRNA, 0.1-100 μM
  maximal induction effect (Emax): 7 fold
[3]
  CLint: 0.639 mL/min/g liver
[4]; 10 μM
  protein bound: 97.2%
[4]; monkey, plasma, 0.2 and 1 μM
  fraction unbound: < 0.01
MC38 tumor; 30 mg/kg PO qd 5 days, vehicle 26.9
  average vessel number (CD31 staining): 17.6
MC38 tumor; 3, 10, 30 mg/kg PO qd 5 days
  presence of tumor microvessels: Dose-dependent decreases
[5]; 14-day non-treatment recovery period
  reversibility of adverse findings: partially or completely reversible
[5]; both sexes, dog, plasma, oral, 18 mg/kg/day, daily dosing for 28 days
  Cmax at 28 days: ~7 µM
[5]; daily for 4 weeks
  ophthalmic findings: No adverse ophthalmic findings
[5]; male and female dogs, daily dosing 28 days, 18 mg/kg/day
  QTc interval: no QTc interval prolongation
[5]; repeat-dose
  cholesterol: increased cholesterol
  dose-related clinical signs: hypoactivity, vomitus, and fecal changes
  reticulocytes: transient decreases in reticulocytes
[5]; terminal sacrifice males >6 mg/kg/day, considered non-adverse
  nasal turbinate histologic findings: increased incidences and severities of mixed cell inflammation and osteolysis/osteogenesis
[6]
  CLint: 0.601 mL/min/g liver
MET [7]; 3 mg/kg
  Compound 1 Plasma Exposure: 2.44 µM
MET [7]; 10 mg/kg
  Compound 1 Plasma Exposure: 9.71 µM
MET [7]; [8]
  inhibition at 3 mg/kg: 60%
  inhibition at 10 mg/kg: 82%
